# Laboratory results: US20050112573A1, “Method of detecting toxic substance” (priority 2001, published 2005)
# Tested on: yeast genes (level of expressed mRNA)
# Assay: DNA chip analysis of expressed mRNA of yeast genes after 2 h culture with a toxic chemical substance
# Format: cell-based, Saccharomyces cerevisiae S288C
# Outline: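 Values are treated-to-control fluorescence ratios from a whole-yeast-genome DNA chip (65° C, over 12 h hybridization) using Cy3/Cy5-labelled cDNA from mRNA. Log-phase S288C cells in YPD at 25° C were exposed 2 h to a toxicant at sublethal, growth-inhibiting concentration.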
substance,measurement,setting,value
γ-hexachlorocyclohexane [(7)],The level of expressed mRNA in the presence of chemical substance/,"yeast gene YNL074C, ratio to control without chemical substance, 2 h culture",1.1
same,The level of expressed mRNA in the presence of chemical substance/,"yeast gene YNL092W, ratio to control without chemical substance, 2 h culture",1.6
same,The level of expressed mRNA in the presence of chemical substance/The level of expressed mRNA in the absence of chemical substance,yeast gene YNL093W,1.4
same,The level of expressed mRNA in the presence of chemical substance/,"yeast gene YNL115C, ratio to control without chemical substance, 2 h culture",2.4
same,The level of expressed mRNA in the presence of chemical substance/,"yeast gene YNL156C, ratio to control without chemical substance, 2 h culture",1.9
same,The level of expressed mRNA in the presence of chemical substance/,"yeast gene YNL234W, ratio to control without chemical substance, 2 h culture",1.2
same,The level of expressed mRNA in the presence of chemical substance/,"yeast gene YNL281W, ratio to control without chemical",1.2
same,The level of expressed mRNA in the presence of chemical substance/,"yeast gene YNL305C, ratio to control without chemical",1.7
same,The level of expressed mRNA in the presence of chemical substance/The level of expressed mRNA in the absence of chemical substance,yeast gene YNL333W,2.9
same,The level of expressed mRNA in the presence of chemical substance/The level of expressed mRNA in the absence of chemical substance,yeast gene YNR010W,1.5
same,The level of expressed mRNA in the presence of chemical substance/,"yeast gene YNR068C, ratio to control without chemical",1.8
same,The level of expressed mRNA in the presence of chemical substance/The level of expressed mRNA in the absence of chemical substance,yeast gene YNR069C,1.4
same,The level of expressed mRNA in the presence of chemical substance/in the absence of chemical substance,yeast gene YNR072W,1.5
same,The level of expressed mRNA in the presence of chemical substance/The level of expressed mRNA in the absence of chemical substance,yeast gene YOL013C,1.7
same,The level of expressed mRNA in the presence of chemical substance/,"yeast gene YOL032W, ratio to control without chemical",1.4
same,The level of expressed mRNA in the presence of chemical substance/,"yeast gene YOL036W, ratio to control without chemical",1.0
same,The level of expressed mRNA in the presence of chemical substance/,"yeast gene YOL047C, ratio to control without chemical",1.3
same,The level of expressed mRNA in the presence of chemical substance/,"yeast gene YOL071W, ratio to control without chemical",2.0
same,The level of expressed mRNA in the presence of chemical substance/,"yeast gene YOL082W, ratio to control without chemical",2.5
same,The level of expressed mRNA in the presence of chemical substance/,"yeast gene YOL083W, ratio to control without chemical",3.1
same,The level of expressed mRNA in the presence of chemical substance/in the absence of chemical substance,yeast gene YOL096C,1.7
same,The level of expressed mRNA in the presence of chemical substance/,"yeast gene YOL117W, ratio to control without chemical",1.6
same,The level of expressed mRNA in the presence of chemical substance/,"yeast gene YOL131W, ratio to control without chemical",1.3
same,The level of expressed mRNA in the presence of chemical substance/,"yeast gene YOL150C, ratio to control without chemical substance, 2 h culture",2.4
same,The level of expressed mRNA in the presence of chemical substance/,"yeast gene YOL162W, ratio to control without chemical",2.0
same,The level of expressed mRNA in the presence of chemical substance/The level of expressed mRNA in the absence of chemical substance,yeast gene YOL164W,2.2
same,The level of expressed mRNA in the presence of chemical substance/,"yeast gene YOR019W, ratio to control without chemical",2.8
same,The level of expressed mRNA in the presence of chemical substance/The level of expressed mRNA in the absence of chemical substance,yeast gene YOR036W,1.8
same,The level of expressed mRNA in the presence of chemical substance/The level of expressed mRNA in the absence of chemical substance,yeast gene YOR117W,3.3
same,The level of expressed mRNA in the presence of chemical substance/The level of expressed mRNA in the absence of chemical substance,yeast gene YOR124C,1.1
same,The level of expressed mRNA in the presence of chemical substance/The level of expressed mRNA in the absence of chemical substance,yeast gene YOR132W,1.4
same,The level of expressed mRNA in the presence of chemical substance/The level of expressed mRNA in the absence of chemical substance,yeast gene YOR157C,1.2
same,The level of expressed mRNA in the presence of chemical substance/in the absence of chemical substance,yeast gene YOR180C,0.8
same,The level of expressed mRNA in the presence of chemical substance/The level of expressed mRNA in the absence of chemical substance,yeast gene YOR181W,0.7
same,The level of expressed mRNA in the presence of chemical substance/The level of expressed mRNA in the absence of chemical substance,yeast gene YOR185C,1.3
same,The level of expressed mRNA in the presence of chemical substance/,"yeast gene YOR197W, ratio to control without chemical",0.9
same,The level of expressed mRNA in the presence of chemical substance/The level of expressed mRNA in the absence of chemical substance,yeast gene YOR198C,1.6
same,The level of expressed mRNA in the presence of chemical substance/The level of expressed mRNA in the absence of chemical substance,yeast gene YOR259C,1.3
same,The level of expressed mRNA in the presence of chemical substance/The level of expressed mRNA in the absence of chemical substance,yeast gene YOR261C,1.9
same,The level of expressed mRNA in the presence of chemical substance/The level of expressed mRNA in the absence of chemical substance,yeast gene YOR288C,2.0
same,The level of expressed mRNA in the presence of chemical substance/The level of expressed mRNA in the absence of chemical substance,yeast gene YOR355W,1.1
same,The level of expressed mRNA in the presence of chemical substance/in the absence of chemical substance,yeast gene YOR363C,0.7
same,The level of expressed mRNA in the presence of chemical substance/The level of expressed mRNA in the absence of chemical substance,yeast gene YOR383C,8.0
same,The level of expressed mRNA in the presence of chemical substance/,"yeast gene YPL087W, ratio to control without chemical",4.2
same,The level of expressed mRNA in the presence of chemical substance/The level of expressed mRNA in the absence of chemical substance,yeast gene YPL089C,0.9
same,The level of expressed mRNA in the presence of chemical substance/The level of expressed mRNA in the absence of chemical substance,yeast gene YPL109C,1.8
same,The level of expressed mRNA in the presence of chemical substance/The level of expressed mRNA in the absence of chemical substance,yeast gene YPL149W,1.2
same,The level of expressed mRNA in the presence of chemical substance/The level of expressed mRNA in the absence of chemical substance,yeast gene YPL154C,1.5
same,The level of expressed mRNA in the presence of chemical substance/,"yeast gene YPL196W, ratio to control without chemical",2.4
same,The level of expressed mRNA in the presence of chemical substance/,"yeast gene YPL206C, ratio to control without chemical",1.2
same,The level of expressed mRNA in the presence of chemical substance/,"yeast gene YPL222W, ratio to control without chemical",1.1
same,The level of expressed mRNA in the presence of chemical substance/,"yeast gene YPR023C, ratio to control without chemical",1.2
same,The level of expressed mRNA in the presence of chemical substance/The level of expressed mRNA in the absence of chemical substance,yeast gene YPR103W,1.6
same,The level of expressed mRNA in the presence of chemical substance/The level of expressed mRNA in the absence of chemical substance,yeast gene YPR108W,1.6
same,The level of expressed mRNA in the presence of chemical substance/,"yeast gene YPR151C, ratio to control without chemical",4.4
same,The level of expressed mRNA in the presence of chemical substance/in the absence of chemical substance,yeast gene YPR184W,1.3
